Experimental data reported in publication PMC9709698 (Journal of Molecular Structure, 2022).

Tests used:
NRC-03-nhCoV = experiment: Antiviral activity; format: cell-based, SARS-CoV-2; settings: CC50 Vero-E6 / IC50 NRC-03-nhCoV
SARS-CoV-2 = experiment: Plaque infectivity reduction assay; format: cell-based; settings: for inhibition at 62.5 µM: Severe acute respiratory syndrome coronavirus 2, read-out: Virus inhibition% Adsorption, 62.5 µM; for inhibition at 125 µM: Severe acute respiratory syndrome coronavirus 2, read-out: Virus inhibition% Adsorption, 125 µM

Row | SMILES | SI (selectivity index) [CC50/IC50] (NRC-03-nhCoV) | other results
1 | O=C(CSc1nc2c(c(=O)[nH]1)CCCC2)NNC(=O)c1ccccc1Cl [Compound 18e, 2-Chloro-N'-(2-((4-oxo-3,4,5,6,7,8-hexahydroquinazolin-2-yl)thio)acetyl)benzohydrazide] | 1.14 | –
2 | O=C(CSc1nc2ccccc2c(=O)[nH]1)NNC(=O)c1ccccc1Br [Compound 17g, 2-Bromo-N'-(2-((4-oxo-3,4-dihydroquinazolin-2-yl)thio)acetyl)benzohydrazide] | 8.64 | inhibition at 62.5 µM (SARS-CoV-2): 26.7 ± 6.65%; inhibition at 125 µM (SARS-CoV-2): 29.6 ± 8.3%
3 | COc1ccccc1C(=O)NNC(=O)CSc1nc2c(c(=O)[nH]1)CCCC2 [Compound 18d, 2-Methoxy-N'-(2-((4-oxo-3,4,5,6,7,8-hexahydroquinazolin-2-yl)thio)acetyl)benzohydrazide] | 2.95 | –
4 | O=C(CSc1nc2c(c(=O)[nH]1)CCCC2)Nc1cccc(C(=O)O)c1 [Compound 12b, 3-(2-((4-Oxo-3,4,5,6,7,8-hexahydroquinazolin-2-yl)thio)acetamido)benzoic acid] | 0.98 | –
5 | O=C(CSc1nc2ccccc2c(=O)[nH]1)NNC(=O)c1ccc(Cl)cc1 [Compound 17f, 4-Chloro-N'-(2-((4-oxo-3,4-dihydroquinazolin-2-yl)thio)acetyl)benzohydrazide] | 4.3 | –
6 | O=C(CSc1nc2ccccc2c(=O)[nH]1)Nc1ccccc1C(=O)O [Compound 11a, 2-(2-((4-Oxo-3,4-dihydroquinazolin-2-yl)thio)acetamido)benzoic acid] | 4.3 | –
7 | Cc1ccc(C(=O)NNC(=O)CSc2nc3c(c(=O)[nH]2)CCCC3)cc1 [Compound 18b, 4-Methyl-N'-(2-((4-oxo-3,4,5,6,7,8-hexahydroquinazolin-2-yl)thio)acetyl)benzohydrazide] | 4.43 | –
8 | COc1ccccc1C(=O)NNC(=O)CSc1nc2ccccc2c(=O)[nH]1 [Compound 17d, 2-Methoxy-N'-(2-((4-oxo-3,4-dihydroquinazolin-2-yl)thio)acetyl)benzohydrazide] | 0.4 | –
9 | O=C(CSc1nc2c(c(=O)[nH]1)CCCC2)NNC(=O)c1ccccc1Br [Compound 18g, 2-Bromo-N'-(2-((4-oxo-3,4,5,6,7,8-hexahydroquinazolin-2-yl)thio)acetyl)benzohydrazide] | 5.23 | –
10 | O=C(CSc1nc2c(c(=O)[nH]1)CCCC2)Nc1ccccc1C(=O)O [Compound 12a, 2-(2-((4-Oxo-3,4,5,6,7,8-hexahydroquinazolin-2-yl)thio)acetamido)benzoic acid] | 2.5 | –
11 | O=C(CSc1nc2c(c(=O)[nH]1)CCCC2)NNC(=O)c1ccc(Cl)cc1 [Compound 18f, 4-Chloro-N'-(2-((4-oxo-3,4,5,6,7,8-hexahydroquinazolin-2-yl)thio)acetyl)benzohydrazide] | 16.04 | Virus inhibition% Virucidal (SARS-CoV-2; 125 µM): 53.3 ± 3.35%; inhibition at 62.5 µM (SARS-CoV-2): 13.3 ± 3.35%; inhibition at 125 µM (SARS-CoV-2): 20 ± 3.3%
12 | O=C(CSc1nc2c(c(=O)[nH]1)CCCC2)NNC(=O)c1ccc([N+](=O)[O-])cc1 [Compound 18c, 4-Nitro-N'-(2-((4-oxo-3,4,5,6,7,8-hexahydroquinazolin-2-yl)thio)acetyl)benzohydrazide] | 10.67 | inhibition at 62.5 µM (SARS-CoV-2): 28.9 ± 10.2%; inhibition at 125 µM (SARS-CoV-2): 44.4 ± 3.87%
13 | O=C(CSc1nc2c(c(=O)[nH]1)CCCC2)NNC(=O)c1ccccc1 [Compound 18a, N'-(2-((4-oxo-3,4,5,6,7,8-hexahydroquinazolin-2-yl)thio)acetyl)benzohydrazide] | 1.68 | –
14 | O=C(CSc1nc2ccccc2c(=O)[nH]1)Nc1cccc(C(=O)O)c1 [Compound 11b, 3-(2-((4-Oxo-3,4-dihydroquinazolin-2-yl)thio)acetamido)benzoic acid] | 4.9 | –
15 | Cc1ccc(C(=O)NNC(=O)CSc2nc3ccccc3c(=O)[nH]2)cc1 [Compound 17b, 4-Methyl-N'-(2-((4-oxo-3,4-dihydroquinazolin-2-yl)thio)acetyl)benzohydrazide] | 2.14 | –
16 | O=C(CSc1nc2ccccc2c(=O)[nH]1)NNC(=O)c1ccccc1Cl [Compound 17e, 2-Chloro-N'-(2-((4-oxo-3,4-dihydroquinazolin-2-yl)thio)acetyl)benzohydrazide] | 0.24 | –
17 | O=C(CSc1nc2ccccc2c(=O)[nH]1)Nc1ccc(C(=O)O)cc1 [Compound 11c, 4-(2-((4-Oxo-3,4-dihydroquinazolin-2-yl)thio)acetamido)benzoic acid] | 5.6 | –
18 | O=C(CSc1nc2ccccc2c(=O)[nH]1)NNC(=O)c1ccc([N+](=O)[O-])cc1 [Compound 17c, 4-Nitro-N'-(2-((4-oxo-3,4-dihydroquinazolin-2-yl)thio)acetyl)benzohydrazide] | 2.61 | –
19 | O=C(CSc1nc2c(c(=O)[nH]1)CCCC2)Nc1ccc(C(=O)O)cc1 [Compound 12c, 4-(2-((4-Oxo-3,4,5,6,7,8-hexahydroquinazolin-2-yl)thio)acetamido)benzoic acid] | 0.63 | –
20 | O=C(CSc1nc2ccccc2c(=O)[nH]1)NNC(=O)c1ccccc1 [Compound 17a, N'-(2-((4-Oxo-3,4-dihydroquinazolin-2-yl)thio)acetyl)benzohydrazide] | 0.59 | –
